# Test results taken from PubChem BioAssay (NCI).
#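 Test compounds were applied to cells in 96-well plates for 48 hours at 5 doses. GI50 = concentration required for 50% inhibition of growth. TGI: concentration producing complete growth inhibition.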
# Legend:
# Test in all cases: NCI tumour cell line growth inhibition, 48 h
# UACC-62 melanoma = tested on: UACC-62 melanoma
# UO-31 renal = tested on: UO-31 renal
# HOP-62 NSCLC = tested on: HOP-62 NSCLC
# SNB-19 CNS = tested on: SNB-19 CNS
# K-562 leukemia = tested on: K-562 leukemia
# IGROV1 ovarian = tested on: IGROV1 ovarian
# SW-620 colon = tested on: SW-620 colon
# T-47D breast = tested on: T-47D breast
# HS 578T breast = tested on: HS 578T breast
# OVCAR-4 ovarian = tested on: OVCAR-4 ovarian
SMILES,TGI (UACC-62 melanoma) [µM],TGI (UO-31 renal) [µM],TGI (HOP-62 NSCLC) [µM],TGI (SNB-19 CNS) [µM],TGI (K-562 leukemia) [µM],TGI (IGROV1 ovarian) [µM],TGI (SW-620 colon) [µM],GI50 (T-47D breast) [µM],TGI (T-47D breast) [µM],GI50 (UACC-62 melanoma) [µM],GI50 (UO-31 renal) [µM],GI50 (HOP-62 NSCLC) [µM],GI50 (SNB-19 CNS) [µM],GI50 (K-562 leukemia) [µM],GI50 (IGROV1 ovarian) [µM],GI50 (HS 578T breast) [µM],TGI (HS 578T breast) [µM],GI50 (SW-620 colon) [µM],GI50 (OVCAR-4 ovarian) [µM],TGI (OVCAR-4 ovarian) [µM]
NC(=O)OCC(COc1ccc(Cl)cc1)OC(=O)c1cc([N+](=O)[O-])cc([N+](=O)[O-])c1 (stereo not drawn),> 100,> 100,> 100,> 100,> 100,> 100,27.6,–,–,–,–,–,–,–,–,–,–,–,–,–
O=C1C(Cl)=C(Nc2ccccn2)C(=O)c2ccccc21,3.95,7.2,6.15,16.3,5.42,8.05,5.16,3.1,10.2,2.1,2.27,2.57,4.53,1.92,3.04,3.65,> 100,2.29,–,–
[O]=[W](=[O])([OH])[OH],> 100,> 100,–,> 100,> 100,> 100,> 100,> 100,> 100,> 100,> 100,–,> 100,> 100,> 100,–,–,> 100,> 100,> 100
COC(=O)C(C(=O)C(=O)Nc1ccc([N+](=O)[O-])cc1)c1nc2cc(C)c(C)cc2[nH]c1=O (stereo not drawn),> 100,> 100,> 100,> 100,> 100,> 100,> 100,–,–,–,–,–,–,–,–,–,–,–,–,> 100
CC(C)N(C(=O)C12C3C4C5C3C1(C#N)C5C42)C(C)C (stereo not drawn),> 100,> 100,> 100,> 100,> 100,> 100,> 100,–,–,–,–,–,–,–,–,–,–,–,–,> 100
CNc1ccc(C(=O)CC(O)CCC(C)C2OC(=O)CC(O)CC(=O)CC(O)CC(O)CC(O)CC(O)CC3(O)CC(O)C(C(=O)NCCc4ccccn4)C(CC(OC4OC(C)C(O)C(N)C4O)/C=C/C=C/C=C/C=C\C=C/C=C/C=C/C2C)O3)cc1 (stereo not drawn),> 34.2,–,–,> 50,> 20.5,> 50,> 50,1.26,> 50,1.54,0.551,–,14.8,2.43,–,0.489,2.61,> 41.5,0.868,> 50
O=C(NCCCCCCNC(=O)NC1OCC(O)C(O)C1O)NC1OCC(O)C(O)C1O (stereo not drawn),> 100,–,> 100,–,> 100,> 100,> 100,–,–,–,–,–,–,–,–,–,–,–,–,> 100
Cc1[nH]c2ccccc2c1C1=CC(=O)C=CC1=O,23.4,23.2,–,41.6,–,27.2,23,2.65,5.75,10.4,10.5,–,16.6,–,12,8.86,53.3,4.55,4.2,15.3
CN1CCc2cc(O)c3cc2C1Cc1ccc(cc1)Oc1cc(ccc1O)CC1c2c(cc4c(c2O3)OCO4)CCN1C (stereo not drawn),47.5,9.46,–,> 100,39.4,> 100,–,–,–,–,–,–,–,–,–,–,–,–,–,88.6
CC(=O)OCc1c(C)c2ccccc2n1C(C)=O,> 100,> 100,> 100,> 100,71.5,> 100,> 100,–,–,–,–,–,–,–,–,–,–,–,–,> 100
CCCCC/C=C\C/C=C/CCCCCCCCNC(=O)Nc1ccc([N+](=O)[O-])cc1,> 100,> 100,> 100,> 100,–,> 100,> 100,22.7,> 100,2.9,24.3,40.8,9.07,–,26.4,–,–,5.51,13.5,> 100
COc1cc2c3c(c1OCc1ccccc1)NCCC3NCC2 (stereo not drawn),> 100,> 100,> 100,> 100,> 100,> 100,> 100,–,–,–,–,–,–,–,–,–,–,–,–,> 100
Cc1ccc(S(=O)(=O)NC(=O)C#CCOC2CCCCO2)cc1 (stereo not drawn),> 100,> 100,–,> 100,> 100,–,> 100,–,–,–,–,–,–,–,–,–,–,–,–,> 100
CCOC(=O)NN(C(=O)OCC)C(C(=O)c1ccc(Cl)cc1)=C1NCCN1,> 100,> 100,> 100,> 100,> 100,> 100,> 100,–,–,–,–,–,–,–,–,–,–,–,–,> 100
CNC(=O)OCc1cc2ccncc2c2c1[nH]c1ccccc12,> 100,> 100,55,> 100,> 100,> 100,> 100,–,–,–,–,–,–,–,–,–,–,–,–,> 100
O=C(O)C1CCCCC1C(=O)Nc1nc2ccccc2[nH]1 (stereo not drawn),> 100,> 100,> 100,> 100,–,> 100,> 100,–,> 100,–,–,–,–,–,–,–,> 100,–,–,> 100
N#C/C(=C\c1ccc([N+](=O)[O-])s1)c1nc2cc(Br)ccc2s1,–,0.461,1.68,> 100,> 40.6,1.14,1.06,–,–,–,0.142,0.314,0.369,0.0561,0.254,0.804,9.28,0.244,–,–
O=C(OC(CNc1c(C(=O)c2ccccc2)c(=O)n(Cc2ccccc2)c(=O)n1Cc1ccccc1)CN1CCCCC1)c1ccccc1 (stereo not drawn),42.4,36,33.6,83.5,31.3,36.9,> 100,> 100,> 100,20.7,16.7,18,30.4,14.9,17.4,42,> 100,35.7,–,–
N#CC(C#N)=Cc1ccc(Oc2ccccc2)cc1,35,> 71.4,> 100,> 100,> 80.4,> 69,72.3,–,–,–,–,–,–,–,–,–,–,–,–,–
